From patent US11339130B1 (Blade Therapeutics, Inc., priority 2016, dated 2022)

Key:
Human Calpain 2/NS1 = target: T1, Human Calpain 2/NS1 (Homo sapiens, UniProt P17655); assay: Calpain inhibition continuous fluorescence (FRET) assay, Human Calpain 2/NS1; format: biochemical; settings: read-out: Human Calpain 2/NS1 IC50
T1 sequence (P17655 1-700): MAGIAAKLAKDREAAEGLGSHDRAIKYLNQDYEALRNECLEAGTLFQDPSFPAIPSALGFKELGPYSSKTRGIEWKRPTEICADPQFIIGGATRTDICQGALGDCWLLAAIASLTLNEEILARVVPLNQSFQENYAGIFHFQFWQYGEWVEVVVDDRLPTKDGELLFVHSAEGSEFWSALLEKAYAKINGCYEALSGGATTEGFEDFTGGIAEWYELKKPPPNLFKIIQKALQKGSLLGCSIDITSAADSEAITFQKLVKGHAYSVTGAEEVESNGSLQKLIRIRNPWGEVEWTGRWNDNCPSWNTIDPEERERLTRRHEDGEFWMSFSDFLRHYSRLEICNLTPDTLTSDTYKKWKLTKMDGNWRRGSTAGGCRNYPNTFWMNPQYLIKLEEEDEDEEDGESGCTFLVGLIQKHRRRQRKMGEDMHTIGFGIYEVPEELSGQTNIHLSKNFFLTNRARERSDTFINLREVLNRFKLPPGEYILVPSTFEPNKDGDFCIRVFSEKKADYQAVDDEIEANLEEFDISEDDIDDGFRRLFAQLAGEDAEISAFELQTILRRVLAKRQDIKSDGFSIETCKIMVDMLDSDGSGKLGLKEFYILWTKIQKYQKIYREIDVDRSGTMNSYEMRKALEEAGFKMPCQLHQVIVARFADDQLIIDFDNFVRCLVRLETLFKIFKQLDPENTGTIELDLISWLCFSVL
T1 sequence (P04632 1-268 partner): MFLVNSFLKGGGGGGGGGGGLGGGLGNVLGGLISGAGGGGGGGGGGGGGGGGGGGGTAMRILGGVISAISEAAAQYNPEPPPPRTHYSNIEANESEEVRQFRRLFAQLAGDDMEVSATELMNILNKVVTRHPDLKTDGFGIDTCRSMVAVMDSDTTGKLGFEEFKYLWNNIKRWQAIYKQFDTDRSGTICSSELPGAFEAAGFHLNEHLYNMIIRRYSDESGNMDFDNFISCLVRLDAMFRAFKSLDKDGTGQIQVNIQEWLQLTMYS
In short: (§1)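 Human calpains 1, 2 and 9 preincubated with inhibitor at 25 °C in 50 mM Tris pH 7.5, 100 mM NaCl, 1 mM DTT; reaction started with 5-FAM/QXL 520 FRET peptide plus CaCl2 for activation. Fluorescence (490/520 nm) followed 10 min; rates from 1-5 min slopes fitted to 4-parameter logistic for IC50.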

[1] = tested on: Calpain activity in SH-SY5Y cells (SBDP-150); assay: SH-SY5Y Spectrin western blot assay (SBDP-150 breakdown product, A23187-induced); format: cell-based; settings: Homo sapiens; SH-SY5Y cells, A23187-induced SBDP-150, western blot; read-out: SH-SY5Y Spectrin IC50
[2] = tested on: Calpain activity in SH-SY5Y cells; assay: SH-SY5Y + AMC fluorescence assay (Suc-LLVY-AMC substrate); format: cell-based; settings: read-out: SH-SY5Y + AMC IC50
Human Calpain 9/NS1 = target: T2, Human Calpain 9/NS1 (Homo sapiens, UniProt O14815); assay: Calpain inhibition continuous fluorescence (FRET) assay, Human Calpain 9/NS1; format: biochemical; settings: read-out: Human Calpain 9/NS1 IC50
T2 sequence (O14815 1-690): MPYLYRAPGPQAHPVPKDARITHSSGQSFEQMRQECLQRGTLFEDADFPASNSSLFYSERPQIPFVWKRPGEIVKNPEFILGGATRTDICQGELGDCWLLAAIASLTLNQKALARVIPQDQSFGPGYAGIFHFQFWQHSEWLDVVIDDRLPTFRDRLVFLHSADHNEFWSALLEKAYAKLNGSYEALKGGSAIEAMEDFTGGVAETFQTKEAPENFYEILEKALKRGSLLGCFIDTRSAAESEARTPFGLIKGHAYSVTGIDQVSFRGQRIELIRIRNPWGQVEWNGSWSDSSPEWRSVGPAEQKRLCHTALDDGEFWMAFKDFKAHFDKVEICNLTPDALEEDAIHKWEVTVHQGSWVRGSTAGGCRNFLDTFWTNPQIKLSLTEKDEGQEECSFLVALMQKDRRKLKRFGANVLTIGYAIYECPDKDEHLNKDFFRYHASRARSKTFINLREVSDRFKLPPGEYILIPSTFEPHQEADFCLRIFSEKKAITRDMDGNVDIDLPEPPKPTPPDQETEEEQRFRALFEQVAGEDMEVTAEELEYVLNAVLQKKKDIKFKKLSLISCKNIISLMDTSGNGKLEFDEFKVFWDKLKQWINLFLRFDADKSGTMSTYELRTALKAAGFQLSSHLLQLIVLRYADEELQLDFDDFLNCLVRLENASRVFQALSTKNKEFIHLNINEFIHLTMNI
T2 sequence (P04632 1-268 partner): T1 sequence (P04632 1-268 partner)
In short: as §1

Human Calpain 1/NS1 = target: T3, Human Calpain 1/NS1 (Homo sapiens, UniProt P07384); assay: Calpain inhibition continuous fluorescence (FRET) assay, Human Calpain 1/NS1; format: biochemical; settings: read-out: Human Calpain 1/NS1 IC50
T3 sequence (P07384 1-714): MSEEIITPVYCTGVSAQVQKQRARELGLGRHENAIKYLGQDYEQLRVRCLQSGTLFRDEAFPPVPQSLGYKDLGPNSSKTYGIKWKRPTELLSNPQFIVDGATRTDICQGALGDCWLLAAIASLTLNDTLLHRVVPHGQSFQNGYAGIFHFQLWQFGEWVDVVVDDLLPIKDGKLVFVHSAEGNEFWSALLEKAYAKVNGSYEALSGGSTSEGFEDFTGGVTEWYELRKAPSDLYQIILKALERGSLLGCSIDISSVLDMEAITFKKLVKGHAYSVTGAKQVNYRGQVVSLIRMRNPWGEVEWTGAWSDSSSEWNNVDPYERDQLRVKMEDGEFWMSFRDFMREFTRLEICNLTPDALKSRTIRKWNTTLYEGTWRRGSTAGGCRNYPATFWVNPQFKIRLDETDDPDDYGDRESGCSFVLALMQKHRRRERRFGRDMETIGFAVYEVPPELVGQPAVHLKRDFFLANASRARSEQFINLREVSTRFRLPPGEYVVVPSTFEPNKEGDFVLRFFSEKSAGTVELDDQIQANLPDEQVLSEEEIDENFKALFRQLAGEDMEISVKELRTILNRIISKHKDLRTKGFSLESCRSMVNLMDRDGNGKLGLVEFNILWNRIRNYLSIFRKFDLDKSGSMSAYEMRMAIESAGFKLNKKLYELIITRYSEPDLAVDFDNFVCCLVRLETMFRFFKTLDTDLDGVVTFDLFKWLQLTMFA
T3 sequence (P04632 1-268 partner): T1 sequence (P04632 1-268 partner)
In short: as §1

Row | Structure (SMILES) | IC50 (Human Calpain 2/NS1) [µM] | IC50 [1] [µM] | IC50 [2] [µM] | IC50 (Human Calpain 9/NS1) [µM] | IC50 (Human Calpain 1/NS1) [µM]
1 | Cn1cc(C(=O)NC(Cc2ccccc2)C(=O)C(N)=O)c(-c2c(F)cccc2F)n1 (stereo not drawn) [Compound 486, N-(4-amino-3,4-dioxo-1-phenylbutan-2-yl)-3-(2,6-difluorophenyl)-1-methyl-1H-pyrazole-4-carboxamide] | < 3 | 10 to 25 | < 10 | < 3 | < 3
2 | NC(=O)C(=O)C(Cc1ccccc1)NC(=O)c1cn(C(F)(F)F)nc1-c1ccccc1 (stereo not drawn) [Compound 489, N-(4-amino-3,4-dioxo-1-phenylbutan-2-yl)-3-phenyl-1-(trifluoromethyl)-1H-pyrazole-4-carboxamide] | < 3 | 10 to 25 | 10 to 25 | < 3 | < 3
3 | Cc1noc(-c2ccccc2)c1C(=O)N[C@@H](Cc1ccc(O)cc1)C(=O)C(N)=O [Compound 492, (S)—N-(4-amino-1-(4-hydroxyphenyl)-3,4-dioxobutan-2-yl)-3-methyl-5-phenylisoxazole-4-carboxamide] | < 3 | 10 to 25 | > 25 | < 3 | < 3
4 | Cc1cc(C(=O)NC(Cc2ccccc2)C(=O)C(N)=O)n(-c2ccc(CNC(=O)c3ccc(F)cc3)cc2)n1 (stereo not drawn) [Compound 496, N-(4-amino-3,4-dioxo-1-phenylbutan-2-yl)-1-(4-((4-fluorobenzamido)methyl)phenyl)-3-methyl-1H-pyrazole-5-carboxamide] | < 3 | 10 to 25 | > 25 | < 3 | < 3
5 | NC(=O)C(=O)C(Cc1ccccc1)NC(=O)c1cc(Br)nn1-c1ncccn1 (stereo not drawn) [Compound 497, N-(4-amino-3,4-dioxo-1-phenylbutan-2-yl)-3-bromo-1-(pyrimidin-2-yl)-1H-pyrazole-5-carb oxamide] | < 3 | 10 to 25 | < 10 | < 3 | < 3
6 | Cc1ccc(-c2nn(C)cc2C(=O)NC(Cc2ccccc2)C(=O)C(N)=O)o1 (stereo not drawn) [Compound 498, N-(4-amino-3,4-dioxo-1-phenylbutan-2-yl)-1-methyl-3-(5-methylfuran-2-yl)-1H-pyrazole-4-carboxamide] | < 3 | > 25 | 10 to 25 | < 3 | < 3
7 | Cc1cc(-c2nn(C)cc2C(=O)NC(Cc2ccccc2)C(=O)C(N)=O)c(C)s1 (stereo not drawn) [Compound 499, N-(4-amino-3,4-dioxo-1-phenylbutan-2-yl)-3-(2,5-dimethylthiophen-3-yl)-1-methyl-1H-pyrazole-4-carboxamide] | < 3 | 10 to 25 | < 10 | < 3 | < 3
8 | Cn1cc(C(=O)NC(Cc2ccccc2)C(=O)C(N)=O)c(-c2ccco2)n1 (stereo not drawn) [Compound 500, N-(4-amino-3,4-dioxo-1-phenylbutan-2-yl)-3-(furan-2-yl)-1-methyl-1H-pyrazole-4-carboxamide] | < 3 | 10 to 25 | < 10 | < 3 | < 3
9 | Cn1cc(C(=O)NC(Cc2ccccc2)C(=O)C(N)=O)c(-c2ccsc2Cl)n1 (stereo not drawn) [Compound 501, N-(4-amino-3,4-dioxo-1-phenylbutan-2-yl)-3-(2-chlorothiophen-3-yl)-1-methyl-1H-pyrazole-4-carboxamide] | < 3 | 10 to 25 | < 10 | < 3 | < 3

Now from value to molecule:

Row | IC50 (Human Calpain 2/NS1) [µM] | IC50 [1] [µM] | IC50 [2] [µM] | IC50 (Human Calpain 9/NS1) [µM] | IC50 (Human Calpain 1/NS1) [µM] | Structure (SMILES)
10 | < 3 | < 10 | > 25 | 3 to 10 | 3 to 10 | Cc1nc(-c2ccccc2)c(C(=O)N[C@@H](Cc2ccccc2)C(=O)CF)o1 [Compound 475, (S)—N-(4-fluoro-3-oxo-1-phenylbutan-2-yl)-2-methyl-4-phenyloxazole-5-carboxamide]
11 | < 3 | 10 to 25 | > 25 | < 3 | < 3 | Cn1cc(C(=O)N[C@@H](Cc2ccccc2)C(=O)CF)c(-c2ccccc2)n1 [Compound 476, (S)—N-(4-fluoro-3-oxo-1-phenylbutan-2-yl)-1-methyl-3-phenyl-1H-pyrazole-4-carboxamide]
12 | < 3 | 10 to 25 | > 25 | 3 to 10 | 3 to 10 | Cc1cc(C(=O)N[C@@H](Cc2ccccc2)C(=O)CF)n(-c2cnccn2)n1 [Compound 477, (S)—N-(4-fluoro-3-oxo-1-phenylbutan-2-yl)-3-methyl-1-(pyrazin-2-yl)-1H-pyrazole-5-carboxamide]
13 | < 3 | > 25 | > 25 | 3 to 10 | < 3 | Cc1cc(C(=O)N[C@@H](Cc2ccccc2)C(=O)CF)n(-c2ccccn2)n1 [Compound 478, (S)—N-(4-fluoro-3-oxo-1-phenylbutan-2-yl)-3-methyl-1-(pyridin-2-yl)-1H-pyrazole-5-carboxamide]
14 | < 3 | 10 to 25 | > 25 | < 3 | < 3 | Cc1cc(C(=O)N[C@@H](Cc2ccccc2)C(=O)CF)n(-c2ccccc2)n1 [Compound 479, (S)—N-(4-fluoro-3-oxo-1-phenylbutan-2-yl)-3-methyl-1-phenyl-1H-pyrazole-5-carboxamide]
15 | < 3 | 10 to 25 | 10 to 25 | < 3 | < 3 | Cn1cc(C(=O)NC(Cc2ccccc2)C(=O)C(N)=O)c(-c2cccc(F)c2F)n1 (stereo not drawn) [Compound 480, N-(4-amino-3,4-dioxo-1-phenylbutan-2-yl)-3-(2,3-difluorophenyl)-1-methyl-1H-pyrazole-4-carboxamide]
